Patent US20260049084A1, “ENPP1 MODULATORS AND PRODUCTS AND USES THEREOF” (Gossamer Bio Services, Inc., priority 2022, published 2026)

Key:
[1] = biological target: Recombinant human ENPP1 protein (Homo sapiens (Human), UniProt P22413); test: ENPP1 cGAMP Biochemical Assay; conditions: 0.5 nM ENPP1, 1000 nM 2′3′-cGAMP substrate, TR-FRET
Outline: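 Recombinant human ENPP1 (final 0.5 nM) preincubated with compound 30 min at room temperature in 50 mM Tris pH 7.5, 1 mM TCEP, 2 mM MgCl2, 0.005% Tween20; 2′3′-cGAMP (1000 nM final) added, 60 min at 25 °C. AMP/GMP product detected by TR-FRET antibody/tracer competition (2 nM), 120 min.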

[2] = biological target: carbonic anhydrase I enzyme (Homo sapiens (Human), UniProt P00915); test: Carbonic Anhydrase 1 Enzymatic Assay; assay type: biochemical; conditions: enzyme from human erythrocyte, 500 μM 4-nitrophenyl acetate, absorbance 400 nm; read-out: CA I IC50
Chain of carbonic anhydrase I enzyme (P00915 whole entry): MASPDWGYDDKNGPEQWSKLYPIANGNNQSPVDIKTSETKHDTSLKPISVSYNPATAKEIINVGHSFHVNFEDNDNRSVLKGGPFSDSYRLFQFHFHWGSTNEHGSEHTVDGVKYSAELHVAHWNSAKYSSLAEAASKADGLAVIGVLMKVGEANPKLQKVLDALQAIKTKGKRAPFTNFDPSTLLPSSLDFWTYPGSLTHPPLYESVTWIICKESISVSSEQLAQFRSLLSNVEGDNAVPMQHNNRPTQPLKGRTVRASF
Method: Carbonic Anhydrase 1 Enzymatic Assay
(§1) Test compound and/or vehicle was preincubated with carbonic anhydrase I enzyme (15 μg/ml) isolated from human erythrocyte in reaction buffer (50 mM MOPS solution pH 7.5) for 15 minutes at 25° C. The reaction was initiated by addition of 500 μM 4-nitrophenyl acetate and incubated for 30 minutes. The plate was read on a spectrophotometer (Absorbance: 400 nm)

[3] = biological target: Recombinant human ENPP3 protein (Homo sapiens (Human), UniProt O14638); test: ENPP3 cGAMP Biochemical Assay; conditions: 70.5 nM ENPP3, 120 μM 2′3′-cGAMP substrate, TR-FRET
Chain of Recombinant human ENPP3 protein (O14638 whole entry): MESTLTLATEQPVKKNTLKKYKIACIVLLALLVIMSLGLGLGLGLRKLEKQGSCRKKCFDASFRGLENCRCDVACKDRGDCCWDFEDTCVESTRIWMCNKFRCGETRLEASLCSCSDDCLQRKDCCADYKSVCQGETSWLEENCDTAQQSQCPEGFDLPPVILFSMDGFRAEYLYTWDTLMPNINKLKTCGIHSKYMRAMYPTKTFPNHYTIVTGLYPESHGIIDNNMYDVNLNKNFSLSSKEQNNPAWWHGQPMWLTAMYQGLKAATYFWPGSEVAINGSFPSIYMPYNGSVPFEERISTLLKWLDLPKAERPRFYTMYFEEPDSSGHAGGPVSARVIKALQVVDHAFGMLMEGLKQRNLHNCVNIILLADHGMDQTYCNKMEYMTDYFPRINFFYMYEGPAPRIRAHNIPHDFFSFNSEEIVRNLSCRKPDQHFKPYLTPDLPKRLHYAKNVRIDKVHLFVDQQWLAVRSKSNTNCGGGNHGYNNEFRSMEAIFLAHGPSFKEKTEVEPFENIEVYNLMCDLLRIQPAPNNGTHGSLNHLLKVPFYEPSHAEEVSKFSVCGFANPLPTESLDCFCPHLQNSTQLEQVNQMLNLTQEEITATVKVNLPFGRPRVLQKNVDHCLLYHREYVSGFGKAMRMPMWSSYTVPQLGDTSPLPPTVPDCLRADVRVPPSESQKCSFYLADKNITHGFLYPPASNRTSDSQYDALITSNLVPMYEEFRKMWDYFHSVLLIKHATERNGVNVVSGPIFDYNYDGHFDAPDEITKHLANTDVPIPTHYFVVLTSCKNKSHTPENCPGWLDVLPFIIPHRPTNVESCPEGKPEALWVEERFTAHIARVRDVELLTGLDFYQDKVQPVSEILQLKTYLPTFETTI
Outline: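 Compound was preincubated 30 min at room temperature with recombinant human ENPP3 (final 70.5 nM) in Tris pH 7.5 with Mg, Ca, Zn and TCEP. 2′3′-cGAMP (120 μM final) was then hydrolysed for 60 min at 25 °C. AMP/GMP product was detected by TR-FRET tracer-displacement immunoassay after 120 min.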

[4] = biological target: carbonic anhydrase II enzyme (Homo sapiens (Human), UniProt P00918); test: Carbonic Anhydrase 2 Enzymatic Assay; assay type: biochemical; conditions: enzyme from human erythrocyte, 500 μM 4-nitrophenyl acetate, absorbance 400 nm; read-out: CA II IC50
Method: Carbonic Anhydrase 2 Enzymatic Assay
as §1, with “II” for “I”

Chain of Recombinant human ENPP1 protein (P22413 whole entry): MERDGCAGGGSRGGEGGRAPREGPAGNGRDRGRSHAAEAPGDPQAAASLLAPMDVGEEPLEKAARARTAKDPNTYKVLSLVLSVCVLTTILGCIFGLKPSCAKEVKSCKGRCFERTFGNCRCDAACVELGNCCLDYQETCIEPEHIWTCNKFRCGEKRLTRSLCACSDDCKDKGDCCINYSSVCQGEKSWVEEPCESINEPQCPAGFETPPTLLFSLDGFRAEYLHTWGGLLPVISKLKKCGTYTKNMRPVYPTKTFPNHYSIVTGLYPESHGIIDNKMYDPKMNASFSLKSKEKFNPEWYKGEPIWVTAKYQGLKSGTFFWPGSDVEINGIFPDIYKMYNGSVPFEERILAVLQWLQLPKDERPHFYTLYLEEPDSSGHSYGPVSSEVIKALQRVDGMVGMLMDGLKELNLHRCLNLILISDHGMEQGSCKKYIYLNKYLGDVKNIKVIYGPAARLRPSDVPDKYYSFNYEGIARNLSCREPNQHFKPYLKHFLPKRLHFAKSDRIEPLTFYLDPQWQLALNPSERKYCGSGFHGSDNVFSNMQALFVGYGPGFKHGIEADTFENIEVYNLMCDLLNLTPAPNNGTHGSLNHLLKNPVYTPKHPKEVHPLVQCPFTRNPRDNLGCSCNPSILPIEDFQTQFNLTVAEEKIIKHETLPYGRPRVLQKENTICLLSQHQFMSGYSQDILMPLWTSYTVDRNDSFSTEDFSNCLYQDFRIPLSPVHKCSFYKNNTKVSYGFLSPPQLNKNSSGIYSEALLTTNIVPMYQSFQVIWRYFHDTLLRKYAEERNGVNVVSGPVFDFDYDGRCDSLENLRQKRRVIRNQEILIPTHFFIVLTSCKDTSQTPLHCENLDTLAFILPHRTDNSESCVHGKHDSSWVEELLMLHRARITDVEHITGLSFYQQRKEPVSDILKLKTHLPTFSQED

Compound	IC50 [1]	IC50 [2]	IC50 [3]	IC50 [4]
N#CCn1nc(Cl)c2c(NCc3ccc(S(N)(=O)=NC#N)cc3)ccnc21 (stereo not drawn) [Compound 12H, 4-(((3-chloro-1-(cyanomethyl)-1H-pyrazolo[3,4-b]pyridin-4-yl)amino)methyl)-N′-cyanobenzenesulfonimidamide]	< 10 nM	100 to 1000 nM	< 10 nM	≥ 1000 nM
C#CCn1nc(Cl)c2c(NCc3ccc(S(N)(=O)=NC#N)cc3)ccnc21 (stereo not drawn) [Compound 12I, 4-(((3-chloro-1-(prop-2-yn-1-yl)-1H-pyrazolo[3,4-b]pyridin-4-yl)amino)methyl)-N′-cyanobenzenesulfonimidamide]	< 10 nM	100 to 1000 nM	< 10 nM	≥ 1000 nM
C#CCn1nc(Cl)c2c(NCc3ccc([S@](=N)(=O)NC#N)cc3)ccnc21 [Compound 12J, (R)-4-(((3-chloro-1-(prop-2-yn-1-yl)-1H-pyrazolo[3,4-b]pyridin-4-yl)amino)methyl)-N-cyanobenzenesulfonimidamide]	< 10 nM	100 to 1000 nM	< 10 nM	≥ 1000 nM
C#CCn1nc(Cl)c2c(NCc3ccc([S@@](=N)(=O)NC#N)cc3)ccnc21 [Compound 12K, (S)-4-(((3-chloro-1-(prop-2-yn-1-yl)-1H-pyrazolo[3,4-b]pyridin-4-yl)amino)methyl)-N-cyanobenzenesulfonimidamide]	< 10 nM	100 to 1000 nM	< 10 nM	100 to 1000 nM
CCn1nc(Cl)c2c(NCC3CCN(S(=N)(=O)CCC#N)CC3)ccnc21 (stereo not drawn) [Compound 14E, 3-(4-(((3-chloro-1-ethyl-1H-pyrazolo[3,4-b]pyridin-4-yl)amino)methyl)piperidine-1-sulfonimidoyl)propanenitrile]	10 to 100 nM	≥ 1000 nM	≥ 1000 nM	≥ 1000 nM
C#CCn1nc(Cl)c2c(NCC3CCN(S(N)(=O)=NC)CC3)ccnc21 (stereo not drawn) [Compound 15D, 4-(((3-chloro-1-(prop-2-yn-1-yl)-1H-pyrazolo[3,4-b]pyridine-4-yl)amino)methyl)-N′-methylpiperidine-1-sulfonimidamide]	< 10 nM	≥ 1000 nM	10 to 100 nM	≥ 1000 nM
N#CCn1nc(Cl)c2c(NCC3CCN([S@@](N)(=O)=NC#N)CC3)ccnc21 [Compound 15E, (S)-4-(((3-chloro-1-(cyanomethyl)-1H-pyrazolo[3,4-b]pyridine-4-yl)amino)methyl)-N′-cyanopiperidine-1-sulfonimidamide]	< 10 nM	100 to 1000 nM	< 10 nM	≥ 1000 nM
N#CCn1nc(Cl)c2c(NCC3CCN([S@](N)(=O)=NC#N)CC3)ccnc21 [Compound 15F, (R)-4-(((3-chloro-1-(cyanomethyl)-1H-pyrazolo[3,4-b]pyridin-4-yl)amino)methyl)-N′-cyanopiperidine-1-sulfonimidamide]	< 10 nM	100 to 1000 nM	< 10 nM	100 to 1000 nM
CN=[S@@](N)(=O)N1CCC(CNc2ccnc3c2c(Cl)nn3CC#N)CC1 [Compound 15H, (R)-4-(((3-chloro-1-(cyanomethyl)-1H-pyrazolo[3,4-b]pyridin-4-yl)amino)methyl)-N′-methylpiperidine-1-sulfonimidamide]	< 10 nM	≥ 1000 nM	100 to 1000 nM	≥ 1000 nM
